# What was measured:
# WT and Mll3/4 KO mESCs = assay: RNA-seq of WT and Mll3/4 KO mESCs treated with LTX -/+ HPX; type: cell-based, mouse; settings: 0.3 μM LTX or 50 μM HPX alone, 48 hours; LTX effect almost completely rescued by HPX
# Protocol: (§1) FIG. 3. […] (A) WT and Mll3/4 KO cells were treated with 0-2.5 μM lometrexol (LTX)−/+50 hypoxanthine (HPX) for 48 hours. CellTiter-Glo® luminescent cell viability assay was performed to determine the percentage of inhibition under these conditions. (B) WT and KO cells were treated with 0.3 μM LTX−/+50 μM HPX for 48 hours, and cells were harvested for RNA-seq. Differential gene expression analyses were performed with indicated comparisons. (C) Principal component analysis of RNA-seq in (B). (D) Hierarchical clustering heatmap showing differentially expressed genes in KO cells in comparison with WT cells.
# (§2) FIG. 10. Mll3/4 KO mESCs are more sensitive to purine synthesis inhibition. (A-B) WT and Mll3/4 KO cells were treated with 0-2.5 μM lometrexol (LTX) (A) or 0-5 methotrexate (MTX) (B) for 48 hours. CellTiter-Glo® luminescent cell viability assay was performed to determine the percentage of inhibition under these conditions with three different Mll3/4 KO clones included. (C) WT and Mll3/4 KO cells were treated with 0-40 μM SHIINI for 48 hours. MTT cell viability assay was performed to determine the percentage of inhibition under these conditions with three different Mll3/4 KO clones included.
# Gene count tables were constructed using HTseq (56) with Ensembl gene annotations and used as input for edgeR 3.0.8 (57). Genes with Benjamini-Hochburg adjusted p-values less than were differentially expressed. Batch effects were removed using ComB at-seq on the raw read counts (58). Pathway analysis was performed with Metascape (59).
# [1] = system: MLL4 mutant colorectal cancer cells (SW480, DLD1, HCT116, RKO); assay: CellTiter-Glo viability assay in MLL4 wild type and MLL4 mutant colorectal cell lines; type: cell-based, human; settings: 72 hours; LTX 0-30 μM, Piericidin A 0-10 μM, Phenformin 0-30 mM
# Mll3/4 KO mESCs [2] = assay: MTT cell viability assay in WT and Mll3/4 KO mESCs; type: cell-based, mouse; settings: 0-40 μM, 48 hours; three Mll3/4 KO clones
# Protocol: as §2
# [3] = system: CAL51 breast cancer cells; assay: CellTiter-Glo viability assay in CAL51 MLL4 WT, hNTD and KO cells; type: cell-based, human
# Protocol: FIG. 17. Cells lacking of MLL4 function are selectively sensitive to de novo purine synthesis inhibition. (A) Tracer levels of glutamine (M+1) in SW1417, Caco2, RKO and HCT116 cells. (B) Labeled purine metabolite levels with 15 N glutamine tracing in SW1417, Caco2, RKO and HCT116 cells. MLL4 WT cells, blue; MLL4 mutant cells, red. (C) CellTiter-Glo® luminescent cell viability assay in CAL51 MLL4 WT, heterozygous truncation mutation (hNTD), and KO cells treated with MTX (0-1 μM). (D) CAL51 WT and MLL4KO cells were treated with 0.04, or 0.4 μM MTX in the presence of H2O, 50 μM thymidine or 50 μM inosine. CellTiter-Glo® luminescent cell viability assay was performed. (E-J) Cells were infected with lentiviruses expressing shCtrl, shGART or shPAICS. Two distinct shRNAs were included for GART and PAICS. Western blot showing the knockdown of GART and PAICS in RKO, HCT116, Caco2 and HT55 cells (E). The growth rates of HCT116 (F), RKO (G), Caco2 (H) and HT55 (I) cells with shCtrl, shGART or shPAICS were measured by cell counting, and the cell number was normalized with day 0. Colony formation of the four cell lines with GART or PAICS knockdown was performed by seeding 500 or 1000 cells in the 6 well plates and stained after 10-14 days of culture with media change every three days (J).
# Mll3/4 KO mESCs [4] = assay: CellTiter-Glo luminescent cell viability assay in WT and Mll3/4 KO mESCs; type: cell-based, mouse; settings: 48 hours; LTX 0-2.5 μM, MTX 0-5; three Mll3/4 KO clones
# Protocol: as §1, §2
smiles,measurement,setting,value
"O=c1[nH]cnc2nc[nH]c12 [HPX, hypoxanthine]",gene expression change in WT and Mll3/4 KO cells,WT and Mll3/4 KO mESCs,subtle gene expression or phenotypic change
[H]/N=C(/N)N/C(=N/[H])NCCc1ccccc1 [Phenformin],sensitivity of MLL4 mutant cells compared with MLL4 wild type cells (growth inhibition),[1],no sensitivity difference between MLL4 WT and mutant cells
C/C=C(\C)[C@H](O)[C@H](C)/C=C(C)/C=C/C/C(C)=C/Cc1nc(OC)c(OC)c(O)c1C [Piericidin A],sensitivity of MLL4 mutant cells compared with MLL4 wild type cells (growth inhibition),[1],no sensitivity difference between MLL4 WT and mutant cells
Cc1[nH]nc2c1C(c1cc(CO)cc(-c3ccccc3)c1)(C(C)C)C(C#N)=C(N)O2 (stereo not shown) [SHIN1],"sensitivity of Mll3/4 KO cells compared with WT cells (percentage of inhibition, MTT)",Mll3/4 KO mESCs [2],enhanced sensitivity
"CN(Cc1cnc2nc(N)nc(N)c2n1)c1ccc(C(=O)N[C@@H](CCC(=O)O)C(=O)O)cc1 [methotrexate, (2S)-2-[[4-[(2,4-diaminopteridin-6-yl)methyl-methylamino]benzoyl]amino]pentanedioic acid]",rescue of cytotoxic effect on MLL4KO cells by nucleosides,[3]; 0.04 or 0.4 μM MTX with 50 μM thymidine or 50 μM inosine,rescued by inosine not thymidine
same,"sensitivity of CAL51 cells with compromised MLL4 functions (MLL4hNTD, MLL4KO) compared with WT",[3]; MTX 0-1 μM,elevated MTX sensitivity
same,sensitivity of Mll3/4 KO cells compared with WT cells (percentage of inhibition of viability),Mll3/4 KO mESCs [4],enhanced sensitivity

# From patent US20230390297A1, “USE OF NUCLEOTIDE SYNTHESIS INHIBITORS FOR TARGETED THERAPY IN MLL3/4 COMPASS MUTANT CANCER” (priority 2022, published 2023)
